Source: patent publication US6387881B1, “Inhibitors and substrates of thrombin” (priority 1992, dated 2002)
Several values for one entry are separate records, joined by “and”; a condition that tells them apart may be missing. Equal entries are not always repeated. Where two headings read alike, the source gives them in different places.

Key:
[1] = biological target: T1, bovine thrombin in citrated normal human plasma (Bos taurus, UniProt P00735); assay: Plasma thrombin time (TT), in vitro; format: biochemical; settings: inhibitor concentration that caused a doubling of the thrombin time
T1 construct: freshly prepared bovine thrombin (5 NIHu/ml saline)
Experimental: (§1) A volume of 150 μl of citrated normal human plasma and 20 μl of buffer or sample were warmed at 37° C. for 1 min. Coagulation was started by adding 150 ul of freshly prepared bovine thrombin (5 NIHu/ml saline) and the coagulation time was recorded on a coagulometer.
(§2) A phosphate buffer, pH 7.8, containing 0.1% bovine serum albumine and 0.02% sodium azide was used. The samples were dissolved in DMSO and diluted with the buffer. When no inhibitor was used DMSO was added to the buffer to the same concentration as that used in the samples. The inhibitor concentrations were plotted against the thrombin times in a semilogarithmic graph from which the inhibitor concentration that caused a doubling (40 sec) of the thrombin time was determined.

human α-thrombin = human α-thrombin (Homo sapiens, UniProt P00734); assay: biochemical; format: biochemical; settings: read-out: Ki
Experimental: The inhibition of human α-thrombin was determined by the inhibition of the enzyme catalyzed hydrolysis of three different concentrations of the chromogenic substrate S-2238.
200 μl of sample or buffer and 50 μl of S-2238 were incubated at 37° C. for 1 min and 50 μl of human α-thrombin (0.25 NIHu/ml) was added. The initial rate of inhibited and uninhibited reactions were recorded at 405 nm. The increase in optical density was plotted according to the method of Lineweaver and Burke. The Km and apparent Km were determined and Ki was calculated using the relationship: [formula]

plasma samples = assay: Ex-vivo APTT; format: in vivo, New Zealand white rabbits; parameters: unit not given here; settings: 1 mg/kg i.v. bolus, rabbit
Experimental: (§3) A volume of 150 μl of citrated (3.2%) normal human plasma was incubated at 37° C. with sample (20 μl) or buffer (20 μl, control) for 1 min. To the solution was added reconstituted “AUTOMATED APTT” (available from Organon Teknika, 0.1 ml). Each solution was activated at 37° C. for 5 min.
(§4) After activation, calcium chloride (0.1 ml, 0.025M, prewarmed at 37° C.) was added and clot detection was timed using a “semiautomated coagulometer” (Nach, Schnicter und Gross).
(§5) Data was obtained as for in-vitro tests, but using plasma samples obtained at 0, 1, 10, 30 and 60 minutes after dosing of 1 mg/kg, i.v. bolus injection in a marginal ear vein in New Zealand white rabbits, which were anaesthetized from a canula in the carotid artery. [drawing 18]

Plasmin = Plasmin (Homo sapiens, UniProt P00747); assay: IC50 against plasmin; format: biochemical
[2] = tested on: 111indium-labelled platelets; assay: Deposition of 111indium-labelled platelets after intravenous dose; format: in vivo, New Zealand white rabbits
Text: M. Hero, K. D. Butler, C. […] Peripheral blood pressure was monitored by a pressure sensor in the carotid artery.

[3] = tested on: bovine thrombin in plasma samples; assay: Ex-vivo TT; format: in vivo, New Zealand white rabbits; parameters: key: thrombin (coagulation) time in seconds; settings: 1 mg/kg i.v. bolus, rabbit
Experimental: as §1, §2, §5

[4] = Peripheral blood pressure after intravenous dose; format: in vivo, New Zealand white rabbits
Text: […] R. May, C. M. Hero, K. D. Butler, C. P. Page, JOURNAL OF PHARMACOLOGICAL METHODS, 24, pp 1-35, 1990. Peripheral blood pressure was monitored by a pressure sensor in the carotid artery.

Urokinase = Urokinase (Homo sapiens, UniProt P00749); assay: IC50 against urokinase; format: biochemical
Xa = biological target: T2, Xa (Homo sapiens, UniProt P00742); assay: IC50 against Xa; format: biochemical
T2 construct: Plasmin; Xa; Urokinase

Kalhikrein = assay: IC50 against kallikrein; format: biochemical
[5] = tested on: citrated normal human plasma; assay: Activated partial thromboplastin time (APTT) for in vitro samples; format: biochemical
Experimental: as §3, §4

[6] = IC50 with and without incubation (enzyme not given); format: biochemical
[7] = single value given, incubation not given, read-out: Plasmin no inc/inc
[8] = single value given, incubation not given, read-out: Urokinase no inc/inc
[9] = single value given, incubation not given, read-out: Xa no inc/inc
[10] = single value given, incubation not given, read-out: Kalhikrein no inc/inc
[11] = human α-thrombin, S-2238, 37° C.
[12] = no incubation, read-out: IC50 No Incubations

T2 sequence (P00742 41-179 limits assumed): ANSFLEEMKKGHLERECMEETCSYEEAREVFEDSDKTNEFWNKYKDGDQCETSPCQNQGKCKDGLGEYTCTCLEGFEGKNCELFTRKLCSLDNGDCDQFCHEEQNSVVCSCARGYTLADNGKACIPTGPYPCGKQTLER
T2 sequence (P00742 235-488 limits assumed): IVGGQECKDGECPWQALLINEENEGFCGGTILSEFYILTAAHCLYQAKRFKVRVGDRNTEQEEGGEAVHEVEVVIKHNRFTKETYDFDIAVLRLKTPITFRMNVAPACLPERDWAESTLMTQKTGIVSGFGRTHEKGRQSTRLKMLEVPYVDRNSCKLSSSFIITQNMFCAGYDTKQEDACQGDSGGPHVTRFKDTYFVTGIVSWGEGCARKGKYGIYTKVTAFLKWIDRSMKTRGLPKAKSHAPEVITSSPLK
Chain of Plasmin (P00747 97-580 limits assumed, species assumed): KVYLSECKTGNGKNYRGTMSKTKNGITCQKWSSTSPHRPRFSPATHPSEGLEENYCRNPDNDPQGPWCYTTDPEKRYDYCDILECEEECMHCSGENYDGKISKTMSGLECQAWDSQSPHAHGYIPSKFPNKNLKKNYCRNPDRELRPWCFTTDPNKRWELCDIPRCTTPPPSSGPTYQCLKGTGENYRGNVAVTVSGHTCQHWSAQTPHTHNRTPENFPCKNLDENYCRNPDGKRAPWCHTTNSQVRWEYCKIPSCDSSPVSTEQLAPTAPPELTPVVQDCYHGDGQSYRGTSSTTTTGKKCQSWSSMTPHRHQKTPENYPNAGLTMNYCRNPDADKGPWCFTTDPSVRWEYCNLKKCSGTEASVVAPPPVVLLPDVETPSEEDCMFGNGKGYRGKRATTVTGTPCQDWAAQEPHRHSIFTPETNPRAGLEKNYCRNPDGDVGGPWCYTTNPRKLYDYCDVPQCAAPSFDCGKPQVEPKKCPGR
Chain of Plasmin (P00747 581-810 limits assumed, species assumed): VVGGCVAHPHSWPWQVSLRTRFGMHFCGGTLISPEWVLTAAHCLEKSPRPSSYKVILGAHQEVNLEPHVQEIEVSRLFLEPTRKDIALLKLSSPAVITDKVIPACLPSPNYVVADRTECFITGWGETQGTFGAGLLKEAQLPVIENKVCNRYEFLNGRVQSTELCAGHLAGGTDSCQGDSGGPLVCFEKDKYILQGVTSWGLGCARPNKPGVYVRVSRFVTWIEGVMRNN

## N=C(N)Nc1ccc(CC(NC(=O)[C@@H]2CCCN2C(=O)[C@H](N)Cc2ccccc2)C(=O)CCC(=O)N2CCCCC2)cc1 (stereo partly drawn) [D-Phe-Pro-Gpa-k--Gly-Pip, D-Phe-Pro-Gpa--k--Gly-Pip]
[1]
  TT: 4.9 µM
Human α-thrombin
  Ki: 1.3 µM

## CC(C)(C)OC(=O)NC(Cc1ccccc1)C(=O)N1CCCC1C(=O)NC(C=O)Cc1cnc[nH]1 [Compound 53, Boc-D-Phe-Pro-His-H]
Plasma samples; time 0 min
  EX-VIVO A.P.T.T.: 32.9 and 24.9
Plasma samples; time 1 min
  EX-VIVO A.P.T.T.: 41.5 and 27.9 and 30.9
Plasma samples; time 10 min
  EX-VIVO A.P.T.T.: 39.9 and 29.9 and 26 and 25.9
Plasma samples; time 30 min
  EX-VIVO A.P.T.T.: 31.4 and 30.4 and 25.4 and 26.1
Plasma samples; time 60 min
  EX-VIVO A.P.T.T.: 28.9 and 27.5 and 25.9
Plasmin; [7]
  IC50: > 413 µM
[2]; 1 mg/kg i.v. dose
  PLATELET ACCUMULATION (% OF NORMAL) LEG: NONE
  PLATELET ACCUMULATION (% OF NORMAL) LUNG: NONE
[2]; 4 mg/kg iv. dose
  PLATELET ACCUMULATION (% OF NORMAL) LEG: NONE
  PLATELET ACCUMULATION (% OF NORMAL) LUNG: NONE
[3]; time 0 min
  EX-VIVO T.T.: 26 and 27 and 24 and 24.9
[3]; time 1 min
  EX-VIVO T.T.: 86.9 and 83.5 and 80.9 and 74
[3]; time 10 min
  EX-VIVO T.T.: 32 and 30 and 29.9
[3]; time 30 min
  EX-VIVO T.T.: 24.4 and 25 and 25.9 and 25.4
[3]; time 60 min
  EX-VIVO T.T.: 24.4 and 23.9 and 22.9
[4]; 1 mg/kg i.v. dose
  BLOOD PRESSURE Δ% of NORM: NONE
[4]; 4 mg/kg iv. dose
  BLOOD PRESSURE Δ% of NORM: 0 Δ% of NORM
Urokinase; [8]
  IC50: > 413 µM
Xa; [9]
  IC50: > 413 µM
Kalhikrein; [10]
  IC50: > 413 µM

## N=C(N)NCCCC(NC(=O)C1CCCN1C(=O)C(N)Cc1ccc2ccccc2c1)C(=O)CCC(=O)N1CCCCC1 [Compound 54, D-β-Nal-Pro-Arg--k--Gly-Pip]
[1]
  TT: 5.3 µM
Human α-thrombin; [11]
  Ki: 2.87 µM
[5]
  APTT: 45.0 µM

## N=C(N)NCCCC(NC(=O)C1CCCN1C(=O)C(N)C(c1ccccc1)c1ccccc1)C(=O)CCC(=O)N1CCCCC1.O=C(O)C(F)(F)F.O=C(O)C(F)(F)F [Compound 6, D-Dpa-Pro-Arg--k--Gly-Pip]
[1]
  TT: 0.65 µM
Plasma samples; time 1 min
  EX-VIVO A.P.T.T.: 46 and 78
Plasma samples; time 10 min
  EX-VIVO A.P.T.T.: 32 and 55
Plasma samples; time 30 min
  EX-VIVO A.P.T.T.: 34 and 57
Plasma samples; time 60 min
  EX-VIVO A.P.T.T.: 27 and 42
Human α-thrombin
  Ki: 0.2 µM
Plasmin; [7]
  IC50: > 157 µM
[2]; 1 mg/kg i.v. dose
  PLATELET ACCUMULATION (% OF NORMAL) LEG: NONE
  PLATELET ACCUMULATION (% OF NORMAL) LUNG: NONE
[3]; time 0 min
  EX-VIVO T.T.: 24.4 and 25.6 and 32.9 and 27.9
[3]; time 1 min
  EX-VIVO T.T.: 176 and 200 and 260 and >200
[3]; time 10 min
  EX-VIVO T.T.: 55 and 61.4 and 76 and 57.5
[3]; time 30 min
  EX-VIVO T.T.: 33 and 36.9 and 62 and 36
[3]; time 60 min
  EX-VIVO T.T.: 25 and 27.9 and 49 and 31.5
[4]; 1 mg/kg i.v. dose
  BLOOD PRESSURE Δ% of NORM: NONE
[6]; [12]
  IC50: 0.2 µM
Urokinase; [8]
  IC50: 494 µM
[5]
  APTT: 8.0 µM
Xa; [9]
  IC50: 149 µM
Kalhikrein; [10]
  IC50: 199 µM

## N=C(N)NCCCC(NC(=O)C1CCCN1C(=O)C(N)C(c1ccccc1)c1ccccc1)C(=O)CCC(=O)N1CCCCC1 (mixture of isomers) [Compound 4, D,L-Dpa-Pro-Arg--k--Gly-Pip]
Human α-thrombin
  Ki: 0.6 µM
[5]
  APTT: 45.0 µM

## COCCCC(NC(=O)[C@@H]1CCCN1C(=O)[C@H](N)C(c1ccccc1)c1ccccc1)P(=O)(Oc1ccccc1)Oc1ccccc1 (stereo partly drawn) [Compound 32, H-D-Dpa-Pro-Mpg^P(OPh)2]
[1]
  TT: 9.1 µM
Human α-thrombin; [11]
  Ki: 0.0048 µM
Plasmin; no incubation (first value of cell), read-out: Plasmin no inc
  IC50: > 187 µM
Plasmin; with incubation (second value of cell), read-out: Plasmin inc
  IC50: 3.32 µM
[6]; [12]
  IC50: 1.48 µM
[6]; with incubation, read-out: IC50 Inc.
  IC50: 0.00235 µM
Urokinase; no incubation (first value of cell), read-out: Urokinase no inc
  IC50: 83 µM
Urokinase; with incubation (second value of cell), read-out: Urokinase inc
  IC50: > 18.7 µM
Xa; no incubation (first value of cell), read-out: Xa no inc
  IC50: 39.7 µM
Xa; with incubation (second value of cell), read-out: Xa inc
  IC50: > 18.7 µM
Kalhikrein; no incubation (first value of cell), read-out: Kalhikrein no inc
  IC50: 66.7 µM
Kalhikrein; with incubation (second value of cell), read-out: Kalhikrein inc
  IC50: > 18.7 µM

## N=C(N)NCCCC(NC(=O)C1CCCN1C(=O)C(N)C1c2ccccc2-c2ccccc21)C(=O)CCC(=O)N1CCCCC1 [Compound 8, D-Fgl-Pro-Arg--k--Gly-Pip]
[1]
  TT: 50.0 µM

## N=C(N)NCCCC(NC(=O)C1CCCN1C(=O)C(N)C(c1ccccc1)c1ccccc1)C(=O)CCC(=O)N1CCCCC1.O=C(O)C(F)(F)F.O=C(O)C(F)(F)F (stereo not drawn) [Compound 7, L,Dpa-Pro-Arg--k--Gly-Pip]
[1]
  TT: 7.5 µM
Human α-thrombin
  Ki: 1.7 µM
[5]
  APTT: 100.0 µM

## N=C(N)NCCCC(NC(=O)C1CCCN1C(=O)C(N)Cc1ccc2ccccc2c1)C(=O)CCC(=O)N1CCCCC1 (mixture of isomers) [Compound 14, D,L-β-Nal-Pro-Arg--k--Gly-Pip]
[1]
  TT: 90.0 µM
Human α-thrombin
  Ki: 11.6 µM
